Reference: article PMC10790229 (Journal of medicinal chemistry, 2023)

How the values were obtained:
Type in all cases: cell-based
HIV-2 ROD = assay: Anti-HIV-2 activity in MT-4 cells; conditions: HIV-2 ROD; for EC50: read-out: EC50 ROD, 50% protection of MT-4 cells against HIV-induced cytotoxicity
HIV-1 IIIB = assay: Anti-HIV-1 activity in MT-4 cells; conditions: MT-4 cells; for SI IIIB (CC50/EC50): HIV-1 IIIB
MT-4 cells = assay: Cytotoxicity in uninfected MT-4 cells

Compound | SI ROD (CC50/EC50) (HIV-2 ROD; MT-4 cells) | SI IIIB (CC50/EC50) (HIV-1 IIIB) | EC50 (HIV-2 ROD) | Ratio IIIB(EC50)/ROD(EC50) (HIV-1 IIIB) | CC50 (MT-4 cells) | fold improvement of anti-HIV-2 potency over PF74 (HIV-2 ROD; MT-4 cells)
COc1ccc(-n2c([C@H](Cc3ccccc3)NC(=O)CN3CCN(S(=O)(=O)c4ccc([N+](=O)[O-])cc4)CC3=O)nc3ccccc3c2=O)cc1 [11a1, (S)-N-(1-(3-(4-Methoxyphenyl)-4-oxo-3,4-dihydroquinazolin-2-yl)-2-phenylethyl)-2-(4-((4-nitrophenyl)sulfonyl)-2-oxopiperazin-1-yl)acetamide] | >312.50 | >119.05 | – | – | – | –
COc1ccc(-n2c([C@H](Cc3cc(F)cc(F)c3)NC(=O)CN3CCN(S(=O)(=O)c4ccc([N+](=O)[O-])cc4)CC3=O)nc3ccccc3c2=O)cc1 [11a2, (S)-N-(2-(3,5-Difluorophenyl)-1-(3-(4-methoxyphenyl)-4-oxo-3,4-dihydroquinazolin-2-yl)ethyl)-2-(4-((4-nitrophenyl)sulfonyl)-2-oxopiperazin-1-yl)acetamide] | >416.67 | >320.51 | 410 ± 40 nM | 1.29 | > 171000 nM | –
COc1ccc(-n2c([C@H](Cc3ccccc3)NC(=O)CN3CCN(S(=O)(=O)c4ccc([N+](=O)[O-])cc4)CC3=O)nc3cc(Cl)ccc3c2=O)cc1 [11c1, (S)-N-(1-(7-Chloro-3-(4-methoxyphenyl)-4-oxo-3,4-dihydroquinazolin-2-yl)-2-phenylethyl)-2-(4-((4-nitrophenyl)sulfonyl)-2-oxopiperazin-1-yl)acetamide] | >403.23 | >79.11 | 420 ± 40 nM | 5.14 | > 171000 nM | –
COc1ccc(-n2c([C@H](Cc3ccccc3)NC(=O)CN3CCN(S(=O)(=O)c4ccc([N+](=O)[O-])cc4)CC3=O)nc3cc(Br)ccc3c2=O)cc1 [11d1, (S)-N-(1-(7-Bromo-3-(4-methoxyphenyl)-4-oxo-3,4-dihydroquinazolin-2-yl)-2-phenylethyl)-2-(4-((4-nitrophenyl)sulfonyl)-2-oxopiperazin-1-yl)acetamide] | >446.43 | >67.20 | 360 ± 30 nM | 6.67 | > 161000 nM | –
COc1ccc(-n2c([C@H](Cc3cc(F)cc(F)c3)NC(=O)CN3CCN(S(=O)(=O)c4ccc([N+](=O)[O-])cc4)CC3=O)nc3cc(Br)ccc3c2=O)cc1 [11d2, (S)-N-(1-(7-Bromo-3-(4-methoxyphenyl)-4-oxo-3,4-dihydroquinazolin-2-yl)-2-(3,5-difluorophenyl)ethyl)-2-(4-((4-nitrophenyl)sulfonyl)-2-oxopiperazin-1-yl)acetamide] | >260.42 | >156.25 | 590 ± 200 nM | 1.68 | > 154000 nM | –
COc1ccc(-n2c([C@H](Cc3ccccc3)NC(=O)CN3CCN(S(=O)(=O)c4ccc([N+](=O)[O-])cc4)CC3=O)nc3cc(S(C)(=O)=O)ccc3c2=O)cc1 [11e1, (S)-N-(1-(3-(4-Methoxyphenyl)-7-(methylsulfonyl)-4-oxo-3,4-dihydroquinazolin-2-yl)-2-phenylethyl)-2-(4-((4-nitrophenyl)-sulfonyl)-2-oxopiperazin-1-yl)acetamide] | >500.00 | >58.14 | 320 ± 30 nM | 8.66 | > 161000 nM | –
COc1ccc(-n2c([C@H](Cc3cc(F)cc(F)c3)NC(=O)CN3CCN(S(=O)(=O)c4ccc([N+](=O)[O-])cc4)CC3=O)nc3cc(S(C)(=O)=O)ccc3c2=O)cc1 [11e2, (S)-N-(2-(3,5-Difluorophenyl)-1-(3-(4-methoxyphenyl)-7-(methylsulfonyl)-4-oxo-3,4-dihydroquinazolin-2-yl)ethyl)-2-(4-((4-nitrophenyl)sulfonyl)-2-oxopiperazin-1-yl)acetamide] | >378.79 | >83.89 | 410 ± 50 nM | 4.49 | > 154000 nM | –
COc1ccc(-n2c([C@H](Cc3ccccc3)NC(=O)CN3CCN(S(=O)(=O)c4ccc(N)cc4)CC3=O)nc3cc(F)ccc3c2=O)cc1 [12b1, (S)-2-(4-((4-Aminophenyl)sulfonyl)-2-oxopiperazin-1-yl)-N-(1-(7-fluoro-3-(4-methoxyphenyl)-4-oxo-3,4-dihydroquinazolin-2-yl)-2-phenylethyl)acetamide] | >1250.00 | >223.21 | 150 ± 30 nM | 5.47 | > 183000 nM | –
COc1ccc(-n2c([C@H](Cc3cc(F)cc(F)c3)NC(=O)CN3CCN(S(=O)(=O)c4ccc(N)cc4)CC3=O)nc3cc(F)ccc3c2=O)cc1 [12b2, (S)-2-(4-((4-Aminophenyl)sulfonyl)-2-oxopiperazin-1-yl)-N-(2-(3,5-difluorophenyl)-1-(7-fluoro-3-(4-methoxyphenyl)-4-oxo-3,4-dihydroquinazolin-2-yl)ethyl)acetamide] | >1488.10 | >568.18 | 120 ± 30 nM | 2.58 | > 173000 nM | –
COc1ccc(-n2c([C@H](Cc3cc(F)cc(F)c3)NC(=O)CN3CCN(S(=O)(=O)c4ccc(N)cc4)CC3=O)nc3cc(Cl)ccc3c2=O)cc1 [12c2, (S)-2-(4-((4-Aminophenyl)sulfonyl)-2-oxopiperazin-1-yl)-N-(1-(7-chloro-3-(4-methoxyphenyl)-4-oxo-3,4-dihydroquinazolin-2-yl)-2-(3,5-difluorophenyl)ethyl)acetamide] | >2083.33 | >1250.00 | 80 ± 10 nM | 1.75 | > 170000 nM | 47 fold
O=C(CN1CCN(S(=O)(=O)c2ccc([N+](=O)[O-])cc2)CC1=O)N[C@@H](Cc1ccccc1)c1nc2ccccc2c(=O)n1-c1ccc(S(=O)(=O)N2CCOCC2)cc1 [20a1, (S)-N-(1-(3-(4-(Morpholinosulfonyl)phenyl)-4-oxo-3,4-dihydroquinazolin-2-yl)-2-phenylethyl)-2-(4-((4-nitrophenyl)-sulfonyl)-2-oxopiperazin-1-yl)acetamide] | >416.67 | >126.26 | 370 ± 90 nM | 3.27 | > 153000 nM | –
O=C(CN1CCN(S(=O)(=O)c2ccc([N+](=O)[O-])cc2)CC1=O)N[C@@H](Cc1cc(F)cc(F)c1)c1nc2ccccc2c(=O)n1-c1ccc(S(=O)(=O)N2CCOCC2)cc1 [20a2, (S)-N-(2-(3,5-Difluorophenyl)-1-(3-(4-(morpholinosulfonyl)-phenyl)-4-oxo-3,4-dihydroquinazolin-2-yl)ethyl)-2-(4-((4-nitrophenyl)sulfonyl)-2-oxopiperazin-1-yl)acetamide] | >833.33 | >892.86 | 180 ± 50 nM | 0.89 | > 147000 nM | –
O=C(CN1CCN(S(=O)(=O)c2ccc([N+](=O)[O-])cc2)CC1=O)N[C@@H](Cc1ccccc1)c1nc2ccccc2c(=O)n1-c1ccc(S(=O)(=O)N2CCS(=O)(=O)CC2)cc1 [20b1, (S)-N-(1-(3-(4-((1,1-Dioxidothiomorpholino)sulfonyl)phenyl)-4-oxo-3,4-dihydroquinazolin-2-yl)-2-phenylethyl)-2-(4-((4-nitrophenyl)sulfonyl)-2-oxopiperazin-1-yl)acetamide] | >198.41 | >11.47 | 730 ± 160 nM | 17.29 | > 145000 nM | –
